According to the supplement of paper PMC10307832:

These cell lines were tested with COc1cc2nc(N3CCCN(C)CC3)nc(NC3CCN(Cc4ccccc4)CC3)c2cc1OC + N=C(N)NC(=N)NCCc1ccccc1 [Phenformin] (partner 250 µM) (assay: relative viability (nuclei count vs DMSO), 5 days (fraction); higher = more cells survive). Settings: first compound 0.2 µM.
Summary of the method: (§1)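 Each reported value is a median over duplicate plates. It expresses relative viability: treated-well nuclei count divided by vehicle-well nuclei count. Lung cancer cell lines in 1536-well plates were dosed by pin tool a day after seeding, alone with one drug or with a fixed anchor-drug dose plus five library-drug doses (not always all listed) in √10 steps, and nuclei were counted after 5 days.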

First: LXF-289
Second: NCI-H23
The relative viability of the first is lower: 0.511 for the first, 0.743 for the second.

Going from NCI-H647 to CAL-12T, the relative viability falls from 0.586 to 0.503.

Compared with NCI-H1651, EPLC-272H is higher in relative viability: 0.351 for the first, 0.353 for the second.

Going from NCI-H2228 to NCI-H1355, the relative viability rises from 0.271 to 0.485.

Compared with NCI-H3122, NCI-H1437 is lower in relative viability: 0.403 for the first, 0.261 for the second.

Compared with NCI-H1755, NCI-H2023 is lower in relative viability: 0.604 for the first, 0.424 for the second.

First: HCC-15
Second: NCI-H1793
The relative viability of the first is higher: 0.443 for the first, 0.372 for the second.

Compared with PC-14, EKVX is lower in relative viability: 0.584 for the first, 0.233 for the second.

Compared with LC-2-ad, NCI-H1944 is lower in relative viability: 0.528 for the first, 0.21 for the second.

Compared with NCI-H1975, RERF-LC-KJ is higher in relative viability: 0.414 for the first, 0.442 for the second.

First: ABC-1
Second: NCI-H358
The relative viability of the first is lower: 0.223 for the first, 0.318 for the second.

First: NCI-H650
Second: PC-3 [JPC-3]
The relative viability of the first is lower: 0.454 for the first, 0.484 for the second.

Same assay, conditions: first compound 0.6325 µM

Compared with LXF-289, NCI-H23 is higher in relative viability: 0.507 for the first, 0.717 for the second.

Going from NCI-H647 to CAL-12T, the relative viability falls from 0.727 to 0.606.

Going from NCI-H1651 to EPLC-272H, the relative viability rises from 0.33 to 0.335.

Compared with NCI-H2228, NCI-H1792 is lower in relative viability: 0.298 for the first, 0.257 for the second.

First: NCI-H1355
Second: NCI-H3122
The relative viability of the first is higher: 0.46 for the first, 0.363 for the second.

Going from NCI-H1437 to NCI-H1755, the relative viability rises from 0.329 to 0.628.

Going from NCI-H2023 to HCC-15, the relative viability rises from 0.414 to 0.485.

Compared with NCI-H1793, PC-14 is higher in relative viability: 0.385 for the first, 0.703 for the second.

Going from EKVX to LC-2-ad, the relative viability rises from 0.235 to 0.568.

First: NCI-H1944
Second: NCI-H1975
The relative viability of the first is lower: 0.221 for the first, 0.431 for the second.

Going from RERF-LC-KJ to ABC-1, the relative viability falls from 0.433 to 0.2.

Compared with NCI-H358, NCI-H650 is lower in relative viability: 0.522 for the first, 0.459 for the second.

With PC-3 [JPC-3] the relative viability was 0.499.

Same assay, conditions: first compound 2 µM

Going from LXF-289 to NCI-H23, the relative viability rises from 0.527 to 0.936.

First: NCI-H647
Second: CAL-12T
The relative viability of the first is lower: 0.673 for the first, 0.686 for the second.

First: NCI-H1651
Second: EPLC-272H
The relative viability of the first is higher: 0.329 for the first, 0.318 for the second.

First: NCI-H2228
Second: NCI-H1792
The relative viability of the first is lower: 0.224 for the first, 0.467 for the second.

Going from NCI-H1355 to NCI-H3122, the relative viability falls from 0.508 to 0.401.

Going from NCI-H1437 to NCI-H1755, the relative viability rises from 0.326 to 0.58.

First: NCI-H2023
Second: HCC-15
The relative viability of the first is lower: 0.498 for the first, 0.572 for the second.

First: NCI-H1793
Second: PC-14
The relative viability of the first is lower: 0.404 for the first, 0.527 for the second.

Going from EKVX to LC-2-ad, the relative viability rises from 0.233 to 0.644.

Compared with NCI-H1944, NCI-H1975 is higher in relative viability: 0.201 for the first, 0.411 for the second.

First: RERF-LC-KJ
Second: ABC-1
The relative viability of the first is higher: 0.397 for the first, 0.26 for the second.

First: NCI-H358
Second: NCI-H650
The relative viability of the first is lower: 0.296 for the first, 0.466 for the second.

PC-3 [JPC-3] was tested, and the relative viability was 0.488.

Same assay, conditions: first compound 6.325 µM

First: LXF-289
Second: NCI-H23
The relative viability of the first is lower: 0.525 for the first, 0.794 for the second.

First: NCI-H647
Second: CAL-12T
The relative viability of the first is lower: 0.366 for the first, 0.532 for the second.

Going from NCI-H1651 to EPLC-272H, the relative viability rises from 0.318 to 0.348.

Compared with NCI-H2228, NCI-H1792 is higher in relative viability: 0.141 for the first, 0.268 for the second.

Going from NCI-H1355 to NCI-H3122, the relative viability falls from 0.463 to 0.331.

Compared with NCI-H1437, NCI-H1755 is higher in relative viability: 0.297 for the first, 0.574 for the second.

First: NCI-H2023
Second: HCC-15
The relative viability of the first is lower: 0.272 for the first, 0.463 for the second.

Going from NCI-H1793 to PC-14, the relative viability falls from 0.364 to 0.265.

Going from EKVX to LC-2-ad, the relative viability rises from 0.24 to 0.521.

Going from NCI-H1944 to NCI-H1975, the relative viability rises from 0.203 to 0.389.

First: RERF-LC-KJ
Second: ABC-1
The relative viability of the first is higher: 0.418 for the first, 0.319 for the second.

Compared with NCI-H358, NCI-H650 is higher in relative viability: 0.305 for the first, 0.427 for the second.

PC-3 [JPC-3] showed a relative viability of 0.521.

What follows are cell lines tested with Cc1cc([C@@H](C)Nc2ccccc2C(=O)O)c2nc(N3CCOCC3)cc(=O)n2c1 [AZD6482] + N=C(N)NC(=N)NCCc1ccccc1 [Phenformin] (partner 250 µM) in the same assay as above. Settings: first compound 0.08 µM.
Summary of the method: as §1

First: LXF-289
Second: NCI-H23
The relative viability of the first is lower: 0.491 for the first, 0.789 for the second.

First: NCI-H647
Second: CAL-12T
The relative viability of the first is lower: 0.417 for the first, 0.615 for the second.

Compared with NCI-H1651, EPLC-272H is higher in relative viability: 0.281 for the first, 0.311 for the second.

Going from NCI-H1792 to NCI-H1355, the relative viability rises from 0.222 to 0.41.

Compared with NCI-H3122, NCI-H1437 is lower in relative viability: 0.385 for the first, 0.268 for the second.

Compared with NCI-H1755, NCI-H2023 is lower in relative viability: 0.525 for the first, 0.384 for the second.

First: HCC-15
Second: NCI-H1793
The relative viability of the first is higher: 0.499 for the first, 0.338 for the second.

Compared with PC-14, EKVX is lower in relative viability: 0.488 for the first, 0.212 for the second.

First: LC-2-ad
Second: NCI-H1944
The relative viability of the first is higher: 0.615 for the first, 0.216 for the second.

Compared with NCI-H1975, RERF-LC-KJ is higher in relative viability: 0.373 for the first, 0.424 for the second.

First: ABC-1
Second: NCI-H358
The relative viability of the first is lower: 0.212 for the first, 0.305 for the second.

First: NCI-H650
Second: PC-3 [JPC-3]
The relative viability of the first is higher: 0.467 for the first, 0.418 for the second.

Same assay, conditions: first compound 0.253 µM

First: LXF-289
Second: NCI-H23
The relative viability of the first is lower: 0.471 for the first, 0.785 for the second.

Compared with NCI-H647, CAL-12T is higher in relative viability: 0.473 for the first, 0.517 for the second.

Compared with NCI-H1651, EPLC-272H is lower in relative viability: 0.296 for the first, 0.241 for the second.

First: NCI-H2228
Second: NCI-H1792
The relative viability of the first is higher: 0.315 for the first, 0.237 for the second.

Compared with NCI-H1355, NCI-H3122 is lower in relative viability: 0.386 for the first, 0.381 for the second.

First: NCI-H1437
Second: NCI-H1755
The relative viability of the first is lower: 0.287 for the first, 0.576 for the second.

Going from NCI-H2023 to HCC-15, the relative viability rises from 0.368 to 0.462.

First: NCI-H1793
Second: PC-14
The relative viability of the first is lower: 0.311 for the first, 0.438 for the second.

Going from EKVX to LC-2-ad, the relative viability rises from 0.22 to 0.497.

Going from NCI-H1944 to NCI-H1975, the relative viability rises from 0.193 to 0.383.

Compared with RERF-LC-KJ, ABC-1 is lower in relative viability: 0.401 for the first, 0.237 for the second.

First: NCI-H358
Second: PC-3 [JPC-3]
The relative viability of the first is lower: 0.323 for the first, 0.492 for the second.

Same assay, conditions: first compound 0.8 µM

Compared with LXF-289, NCI-H23 is higher in relative viability: 0.51 for the first, 0.84 for the second.

Compared with NCI-H647, CAL-12T is higher in relative viability: 0.399 for the first, 0.568 for the second.

Going from NCI-H1651 to EPLC-272H, the relative viability rises from 0.33 to 0.343.

First: NCI-H2228
Second: NCI-H1792
The relative viability of the first is higher: 0.324 for the first, 0.298 for the second.

Compared with NCI-H1355, NCI-H3122 is lower in relative viability: 0.414 for the first, 0.371 for the second.

Compared with NCI-H1437, NCI-H1755 is higher in relative viability: 0.262 for the first, 0.542 for the second.

Going from NCI-H2023 to HCC-15, the relative viability rises from 0.379 to 0.457.

First: NCI-H1793
Second: PC-14
The relative viability of the first is lower: 0.24 for the first, 0.59 for the second.

Compared with EKVX, LC-2-ad is higher in relative viability: 0.233 for the first, 0.6 for the second.

Going from NCI-H1944 to NCI-H1975, the relative viability rises from 0.19 to 0.401.

Going from RERF-LC-KJ to ABC-1, the relative viability falls from 0.368 to 0.283.

Going from NCI-H358 to NCI-H650, the relative viability rises from 0.317 to 0.431.

PC-3 [JPC-3] showed a relative viability of 0.508.

Same assay, conditions: first compound 2.53 µM

First: LXF-289
Second: NCI-H23
The relative viability of the first is lower: 0.452 for the first, 0.628 for the second.

Going from NCI-H647 to CAL-12T, the relative viability rises from 0.262 to 0.336.

Going from NCI-H1651 to EPLC-272H, the relative viability falls from 0.253 to 0.24.

First: NCI-H2228
Second: NCI-H1355
The relative viability of the first is higher: 0.309 for the first, 0.308 for the second.

Compared with NCI-H1437, NCI-H1755 is higher in relative viability: 0.223 for the first, 0.427 for the second.

Going from NCI-H2023 to HCC-15, the relative viability rises from 0.261 to 0.349.

First: NCI-H1793
Second: EKVX
The relative viability of the first is higher: 0.191 for the first, 0.171 for the second.

Going from LC-2-ad to NCI-H1944, the relative viability falls from 0.442 to 0.154.

Compared with NCI-H1975, RERF-LC-KJ is higher in relative viability: 0.283 for the first, 0.394 for the second.

First: ABC-1
Second: NCI-H358
The relative viability of the first is higher: 0.229 for the first, 0.163 for the second.

Compared with NCI-H650, PC-3 [JPC-3] is higher in relative viability: 0.292 for the first, 0.406 for the second.

Same assay, conditions: first compound 8 µM

Going from LXF-289 to NCI-H23, the relative viability rises from 0.307 to 0.658.

Going from NCI-H647 to CAL-12T, the relative viability rises from 0.324 to 0.418.

Going from NCI-H1651 to EPLC-272H, the relative viability falls from 0.242 to 0.154.

First: NCI-H2228
Second: NCI-H1792
The relative viability of the first is higher: 0.284 for the first, 0.13 for the second.

First: NCI-H1355
Second: NCI-H3122
The relative viability of the first is lower: 0.329 for the first, 0.412 for the second.

Going from NCI-H1437 to NCI-H1755, the relative viability rises from 0.261 to 0.41.

Compared with NCI-H2023, HCC-15 is higher in relative viability: 0.29 for the first, 0.406 for the second.

NCI-H1793 gave a relative viability of 0.15.
